In PubChem BioAssay AID248 (DTP/NCI, 2004):
Where “and” joins values, the source holds several entries; their conditions need not be identical. Equal values may be shown once. Toxic doses and inconclusive results are not listed.

System: L1210 leukemia ip in BDF1 mice, survival T/C
Assay: NCI In Vivo Anticancer Drug Screen. Data for tumor model L1210 Leukemia (intraperitoneal) in B6D2F1 (BDF1) mice
Details: higher = longer survival
How it was run: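 Transplantable tumor model; survival measured in treated vs vehicle control mice. Value = treated/control.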

[1] = endpoint: mean survival time, dose: 100.0 mg/kg/injection, schedule: Q01DX009 (ip), vehicle: Klucel (hydroxypropylcellulose) (HPC)
[2] = endpoint: mean survival time, dose: 200.0 mg/kg/injection, schedule: Q01DX009 (ip), vehicle: Klucel (hydroxypropylcellulose) (HPC)
[3] = endpoint: mean survival time, dose: 400.0 mg/kg/injection, schedule: Q01DX009 (ip), vehicle: Klucel (hydroxypropylcellulose) (HPC)
[4] = endpoint: mean survival time, dose: 50.0 mg/kg/injection, schedule: Q01DX009 (ip), vehicle: Klucel (hydroxypropylcellulose) (HPC)
[5] = endpoint: mean survival time, dose: 100.0 mg/kg/injection, schedule: Q01DX009 (ip), vehicle: saline
[6] = endpoint: mean survival time, dose: 200.0 mg/kg/injection, schedule: Q01DX009 (ip), vehicle: saline

With `O=CC(O)CO` (stereo unspecified) the T/C (endpoint: mean survival time, dose: 62.5 mg/kg/injection, schedule: Q01DX009 (ip), vehicle: carboxymethylcellulose (CMC)) was 102 % of control, the T/C (endpoint: mean survival time, dose: 108.0 mg/kg/injection, schedule: Q01DX Z (ip), vehicle: other) was 95 % of control and the T/C (endpoint: mean survival time, dose: 125.0 mg/kg/injection, schedule: Q01DX001 (ip), vehicle: carboxymethylcellulose (CMC)) was 98 % of control. For the same compound, the T/C (endpoint: mean survival time, dose: 125.0 mg/kg/injection, schedule: Q01DX009 (ip), vehicle: carboxymethylcellulose (CMC)) was 116 % of control, the T/C (endpoint: mean survival time, dose: 180.0 mg/kg/injection, schedule: Q01DX Z (ip), vehicle: other) was 112 % of control and the T/C (endpoint: mean survival time, dose: 250.0 mg/kg/injection, schedule: Q01DX001 (ip), vehicle: carboxymethylcellulose (CMC)) was 105 % of control. The T/C (endpoint: mean survival time, dose: 250.0 mg/kg/injection, schedule: Q01DX009 (ip), vehicle: carboxymethylcellulose (CMC)) was 116 % of control, the T/C (endpoint: mean survival time, dose: 300.0 mg/kg/injection, schedule: Q01DX Z (ip), vehicle: other) was 113 % of control and the T/C (endpoint: mean survival time, dose: 500.0 mg/kg/injection, schedule: Q01DX001 (ip), vehicle: carboxymethylcellulose (CMC)) was 100 % of control. For the same compound, the T/C (endpoint: mean survival time, dose: 500.0 mg/kg/injection, schedule: Q01DX009 (ip), vehicle: carboxymethylcellulose (CMC)) was 118 % of control, the T/C (endpoint: mean survival time, dose: 500.0 mg/kg/injection, schedule: Q01DX Z (ip), vehicle: other) was 115 % of control and the T/C (endpoint: mean survival time, dose: 833.0 mg/kg/injection, schedule: Q01DX Z (ip), vehicle: other) was 114 % of control. For the same compound, the T/C (endpoint: mean survival time, dose: 1000.0 mg/kg/injection, schedule: Q01DX001 (ip), vehicle: carboxymethylcellulose (CMC)) was 110 % of control, the T/C (endpoint: median survival time, dose: 352.0 mg/kg/injection, schedule: Q01DX005 (ip), vehicle: saline sonified) was 122 % of control and the T/C (endpoint: median survival time, dose: 440.0 mg/kg/injection, schedule: Q01DX005 (ip), vehicle: other) was 118 % of control. For the same compound, the T/C (endpoint: median survival time, dose: 440.0 mg/kg/injection, schedule: Q01DX005 (ip), vehicle: saline sonified) was 116 % of control, the T/C (endpoint: median survival time, dose: 550.0 mg/kg/injection, schedule: Q01DX005 (ip), vehicle: saline sonified) was 122 % of control and the T/C (endpoint: median survival time, dose: 688.0 mg/kg/injection, schedule: Q01DX005 (ip), vehicle: other) was 107 % of control. The T/C (endpoint: median survival time, dose: 688.0 mg/kg/injection, schedule: Q01DX005 (ip), vehicle: saline sonified) was 111 % of control, the T/C (endpoint: median survival time, dose: 860.0 mg/kg/injection, schedule: Q01DX005 (ip), vehicle: other) was 51 % of control and the T/C (endpoint: median survival time, dose: 1053.0 mg/kg/injection, schedule: Q01DX001 (ip), vehicle: other) was 119 % of control. For the same compound, the T/C (endpoint: median survival time, dose: 1053.0 mg/kg/injection, schedule: Q01DX001 (ip), vehicle: saline sonified) was 122 % of control, the T/C (endpoint: median survival time, dose: 1170.0 mg/kg/injection, schedule: Q01DX001 (ip), vehicle: other) was 117 % of control and the T/C (endpoint: median survival time, dose: 1170.0 mg/kg/injection, schedule: Q01DX001 (ip), vehicle: saline sonified) was 122 % of control. For the same compound, the T/C (endpoint: median survival time, dose: 1300.0 mg/kg/injection, schedule: Q01DX001 (ip), vehicle: other) was 117 % of control, the T/C (endpoint: median survival time, dose: 1300.0 mg/kg/injection, schedule: Q01DX001 (ip), vehicle: saline sonified) was 122 % of control and the T/C (endpoint: median survival time, dose: 1444.0 mg/kg/injection, schedule: Q01DX001 (ip), vehicle: other) was 121 % of control. The T/C (endpoint: median survival time, dose: 1444.0 mg/kg/injection, schedule: Q01DX001 (ip), vehicle: saline sonified) was 122 % of control, the T/C (endpoint: median survival time, dose: 1604.0 mg/kg/injection, schedule: Q01DX001 (ip), vehicle: other) was 51 % of control and the T/C (endpoint: median survival time, dose: 1782.0 mg/kg/injection, schedule: Q01DX001 (ip), vehicle: other) was 75 % of control.

For `CN(C)c1ccc(N=Nc2cccc([N+](=O)[O-])c2)cc1`, the T/C [1] was 105 % of control, the T/C [2] was 97 % of control and the T/C [3] was 100 % of control.

For `O=[N+]([O-])CC(Nc1ccccc1)c1ccccc1` (stereo unspecified), the T/C (endpoint: mean survival time, dose: 12.5 mg/kg/injection, schedule: Q01DX009 (ip), vehicle: Klucel (hydroxypropylcellulose) (HPC)) was 108 % of control, the T/C (endpoint: mean survival time, dose: 25.0 mg/kg/injection, schedule: Q01DX009 (ip), vehicle: Klucel (hydroxypropylcellulose) (HPC)) was 100 % of control and the T/C (endpoint: mean survival time, dose: 50.0 mg/kg/injection, schedule: Q01DX001 (ip), vehicle: Klucel (hydroxypropylcellulose) (HPC)) was 96 % of control and 110 % of control. The T/C (endpoint: mean survival time, dose: 50.0 mg/kg/injection, schedule: Q01DX001 (ip), vehicle: carboxymethylcellulose (CMC)) was 102 % of control, the T/C [4] was 102 % of control and the T/C (endpoint: mean survival time, dose: 100.0 mg/kg/injection, schedule: Q01DX001 (ip), vehicle: Klucel (hydroxypropylcellulose) (HPC)) was 97 % of control and 98 % of control. For the same compound, the T/C (endpoint: mean survival time, dose: 100.0 mg/kg/injection, schedule: Q01DX001 (ip), vehicle: carboxymethylcellulose (CMC)) was 102 % of control, the T/C (endpoint: mean survival time, dose: 200.0 mg/kg/injection, schedule: Q01DX001 (ip), vehicle: Klucel (hydroxypropylcellulose) (HPC)) was 102 % of control and 107 % of control and the T/C (endpoint: mean survival time, dose: 200.0 mg/kg/injection, schedule: Q01DX001 (ip), vehicle: carboxymethylcellulose (CMC)) was 100 % of control. For the same compound, the T/C (endpoint: mean survival time, dose: 400.0 mg/kg/injection, schedule: Q01DX001 (ip), vehicle: Klucel (hydroxypropylcellulose) (HPC)) was 105 % of control and the T/C (endpoint: mean survival time, dose: 400.0 mg/kg/injection, schedule: Q01DX001 (ip), vehicle: carboxymethylcellulose (CMC)) was 90 % of control.

For `Nc1nc(=O)c2[nH]cnc2n1O`, the T/C (endpoint: mean survival time, dose: 12.5 mg/kg/injection, schedule: Q01DX009 (ip), vehicle: saline with Tween-80) was 96 % of control, the T/C (endpoint: mean survival time, dose: 16.5 mg/kg/injection, schedule: Q01DX009 (ip), vehicle: saline) was 112 % of control and the T/C (endpoint: mean survival time, dose: 25.0 mg/kg/injection, schedule: Q01DX009 (ip), vehicle: saline with Tween-80) was 215 % of control. For the same compound, the T/C (endpoint: mean survival time, dose: 25.0 mg/kg/injection, schedule: Q01DX009 (ip), vehicle: saline) was 100 % of control, the T/C (endpoint: mean survival time, dose: 50.0 mg/kg/injection, schedule: Q01DX009 (ip), vehicle: saline with Tween-80) was 88 % of control and the T/C (endpoint: mean survival time, dose: 55.0 mg/kg/injection, schedule: Q01DX009 (ip), vehicle: saline) was 110 % of control.

In the case of `O=C1NC(c2cccc3ccccc23)Nc2ccc(Cl)cc21` (stereo unspecified), the T/C [4] is reported as 108 % of control and 109 % of control and the T/C (endpoint: mean survival time, dose: 150.0 mg/kg/injection, schedule: Q01DX009 (ip), vehicle: Klucel (hydroxypropylcellulose) (HPC)) is reported as 116 % of control.

`O=P1(N(CCF)CCCl)NCCCO1` (stereo unspecified) was tested, and the T/C (endpoint: mean survival time, dose: 10.0 mg/kg/injection, schedule: Q01DX Z (ip), vehicle: other) was 94 % of control and the T/C (endpoint: mean survival time, dose: 30.0 mg/kg/injection, schedule: Q01DX Z (ip), vehicle: other) was 102 % of control.

For `CN1CCC(CC(=O)O)CC1`, the T/C (endpoint: mean survival time, dose: 50.0 mg/kg/injection, schedule: Q01DX009 (ip), vehicle: saline) was 92 % of control, the T/C [5] was 92 % of control and the T/C [6] was 111 % of control.

For `CC(=O)[O][Hg][c]1cc2c(cc1N)C(=O)c1ccccc1-2`, the T/C (endpoint: mean survival time, dose: 12.5 mg/kg/injection, schedule: Q01DX001 (ip), vehicle: carboxymethylcellulose (CMC)) was 102 % of control.

With `C=CCN(CC=C)C(=O)Nc1ccc(C(=O)N/N=C/c2cccc(OC)c2OC)cc1` the T/C [1] was 103 % of control and 88 % of control, the T/C (endpoint: mean survival time, dose: 100.0 mg/kg/injection, schedule: Q04DX002 (ip), vehicle: Klucel (hydroxypropylcellulose) (HPC)) was 95 % of control and 105 % of control and the T/C [2] was 100 % of control and 88 % of control. For the same compound, the T/C (endpoint: mean survival time, dose: 200.0 mg/kg/injection, schedule: Q04DX002 (ip), vehicle: Klucel (hydroxypropylcellulose) (HPC)) was 94 % of control and 101 % of control, the T/C [3] was 95 % of control and the T/C (endpoint: mean survival time, dose: 400.0 mg/kg/injection, schedule: Q04DX002 (ip), vehicle: Klucel (hydroxypropylcellulose) (HPC)) was 97 % of control and 105 % of control.

`CC1(C)N=C(N)N=C(N)N1c1cccc(C(=O)CCl)c1` was tested, and the T/C (endpoint: mean survival time, dose: 25.0 mg/kg/injection, schedule: Q01DX001 (ip), vehicle: saline with Tween-80) was 95 % of control, the T/C (endpoint: mean survival time, dose: 50.0 mg/kg/injection, schedule: Q01DX001 (ip), vehicle: saline with Tween-80) was 103 % of control and the T/C (endpoint: mean survival time, dose: 100.0 mg/kg/injection, schedule: Q01DX001 (ip), vehicle: saline with Tween-80) was 101 % of control.

For `O=C(CCCCCC(=O)NO)NO`, the T/C (endpoint: mean survival time, dose: 100.0 mg/kg/injection, schedule: Q04DX002 (ip), vehicle: saline with Tween-80) was 93 % of control, the T/C (endpoint: mean survival time, dose: 100.0 mg/kg/injection, schedule: Q04DX002 (ip), vehicle: saline) was 100 % of control and the T/C (endpoint: mean survival time, dose: 200.0 mg/kg/injection, schedule: Q04DX002 (ip), vehicle: saline with Tween-80) was 97 % of control. For the same compound, the T/C (endpoint: mean survival time, dose: 200.0 mg/kg/injection, schedule: Q04DX002 (ip), vehicle: saline) was 93 % of control, the T/C (endpoint: mean survival time, dose: 400.0 mg/kg/injection, schedule: Q04DX002 (ip), vehicle: saline with Tween-80) was 97 % of control and the T/C (endpoint: mean survival time, dose: 400.0 mg/kg/injection, schedule: Q04DX002 (ip), vehicle: saline) was 93 % of control.

With `O=CN1CCCc2cc(C(=O)O)ccc21` the T/C [5] was 90 % of control, the T/C [6] was 93 % of control and the T/C (endpoint: mean survival time, dose: 400.0 mg/kg/injection, schedule: Q01DX009 (ip), vehicle: saline) was 86 % of control.
